Assay results as given in patent US20260256789A1, “METHODS FOR TREATMENT OF CANCER” (Frontier Medicines Corporation, priority 2022, published 2026).

Target: T1, KRAS G12C (GMPPNP-loaded) and cRAF Ras-binding domain (Homo sapiens, UniProt P01116, C118S/C51S/C80L/G12C)
T1 construct: truncated version comprising amino acids 1-169
Assay: Inhibition of KRAS G12C and cRAF binding (AlphaScreen)
Conditions: KRAS G12C preloaded with GTP analogue GMPPNP, 2 hours preincubation
Excerpt: The ability of compounds of Formula (A), Formula (B) and Formula (C), and pharmaceutically acceptable salts and/or isotopologues thereof, to inhibit activity of the GTP-bound form of KRAS G12C can be tested using methods such as the in vitro assay described in Example 179 below. Example 179 describes determining, for various compounds, the half-maximal inhibition (IC50) of KRAS G12C loaded with GTP analogue GMPPNP from binding to cRaf, as the Ras-binding domain (RBD). Example 180 describes determining, for various compounds, the half-maximal inhibition (IC50) of KRAS G12C loaded with GTP analogue GMPPNP from binding to PI3Kα, as the Ras-binding domain (RBD). Example 181 describes testing compounds for the ability to inhibit cell viability in MCF10A G12C/A59G mutant, which abrogates GTPase activity, thus preventing hydrolysis of GTP to GDP.
The AlphaScreen technology was used to determine IC50s for compound inhibition of KRAS G12C (present as the Cys-light (C51S, C80L and C118S), truncated version comprising amino acids 1-169) and cRAF interaction. Compounds were diluted in 100% DMSO and each compound concentration was spotted at 200 nl/well onto low volume, white 384 well plates. The KRAS G12C contained a biotin-AviTag and the cRaf, as Ras-binding domain (amino acids 50-131, RBD), was GST-tagged. KRAS G12C was preloaded with the GTP analogue Guanosine 5′-[β,γ-imido]triphosphate (GMPPNP). The KRAS G12C was diluted in 25 mM Hepes, pH 7.4, 150 mM NaCl, 5 mM MgCl2, 0.01% TritonX-100 and 10 μM GMPPNP and added at 10 ul/well to compound-spotted plates resulting in a DMSO concentration of 2%. Plates were incubated for 2 hours. A mixture of RBD and the AlphaScreen streptavidin donor and glutathione acceptor beads diluted in 25 mM Hepes, pH 7.4, 150 mM NaCl, 5 mM MgCl2, 0.01% TritonX-100 and 2% DMSO was then added at 10 ul/well and incubated for 60-90 minutes before the samples were read for emission at 570 nm after excitation of the donor beads at 680 nm. All incubations were performed at room temperature. The final top compound concentration was 50 μM with 1:3 titrations for 10-point dose response curves. Final assay conditions were 0.5 nM KRAS G12C, 0.75 nM RBD and 5 μg/ml each of AlphaScreen donor and acceptor beads. IC50s were determined using nonlinear regression fit of [inhibitor] vs. response (4 parameters). […]

T1 sequence (P01116 1-169 isoform P01116-2 G12C/C51S/C80L/C118S): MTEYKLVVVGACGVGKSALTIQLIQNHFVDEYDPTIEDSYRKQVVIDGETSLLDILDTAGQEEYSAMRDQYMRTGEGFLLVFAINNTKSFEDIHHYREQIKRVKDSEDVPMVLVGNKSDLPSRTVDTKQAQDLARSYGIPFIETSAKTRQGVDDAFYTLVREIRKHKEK

Structure (SMILES) | IC50
C=CC(=O)N1CC[C@@H](N(C)c2nc(OC[C@@]34CCCN3C[C@H](F)C4)nc3c(F)c(-c4cc(O)ccc4C4CC4)ncc23)C1 [Example 31, 1-((R)-3-((7-(2-cyclopropyl-5-hydroxyphenyl)-8-fluoro-2-(((2R,7aS)-2-fluorotetrahydro-1H-pyrrolizin-7a(5H)-yl)methoxy)pyrido[4,3-d]pyrimidin-4-yl)(methyl)amino)pyrrolidin-1-yl)prop-2-en-1-one] | 10 to 100 nM
CN(c1nc(OC[C@@]23CCCN2C[C@H](F)C3)nc2c(F)c(-c3cccc(Cl)c3C3CC3)ncc12)[C@@H]1CCN(C(=O)C#C[C@]2(C)CCCN2C)C1 [Example 208] | 10 to 100 nM
Cc1nccc(/C=C/C(=O)N2CC(CN(C)c3nc(OC[C@@]45CCCN4C[C@H](F)C5)nc4c(F)c(-c5nc(N)cc6cccc(Cl)c56)ncc34)C2)n1 [Example 156, (E)-1-(3-(((7-(3-amino-8-chloroisoquinolin-1-yl)-8-fluoro-2-(((2R,7aS)-2-fluorotetrahydro-1H-pyrrolizin-7a(5H)-yl)methoxy)pyrido[4,3-d]pyrimidin-4-yl)(methyl)amino)methyl)azetidin-1-yl)-3-(2-methylpyrimidin-4-yl)prop-2-en-1-one] | 10 to 100 nM
Cc1cc(N)nc(-c2ncc3c(N(C)[C@@H]4CCN(C(=O)/C=C/c5nc(C(C)C)no5)C4)nc(OC[C@@]45CCCN4C[C@H](F)C5)nc3c2F)c1C(F)(F)F [Example 71, (E)-1-((R)-3-((7-(6-amino-4-methyl-3-(trifluoromethyl)pyridin-2-yl)-8-fluoro-2-(((2R,7aS)-2-fluorotetrahydro-1H-pyrrolizin-7a(5H)-yl)methoxy)pyrido[4,3-d]pyrimidin-4-yl)(methyl)amino)pyrrolidin-1-yl)-3-(3-isopropyl-1,2,4-oxadiazol-5-yl)prop-2-en-1-one] | < 10 nM
Cc1cc(N)nc(-c2ncc3c(N(C)[C@@H]4CCN(C(=O)/C=C/c5nc(C(C)C)no5)C4)nc(OC[C@@]45CCCN4C[C@H](F)C5)nc3c2F)c1C [Example 53, (E)-1-((R)-3-((7-(6-amino-3,4-dimethylpyridin-2-yl)-8-fluoro-2-(((2R,7aS)-2-fluorotetrahydro-1H-pyrrolizin-7a(5H)-yl)methoxy)pyrido[4,3-d]pyrimidin-4-yl)(methyl)amino)pyrrolidin-1-yl)-3-(3-isopropyl-1,2,4-oxadiazol-5-yl)prop-2-en-1-one] | 10 to 100 nM
C=CC(=O)N1CC(CN(C)c2nc(OC[C@@]34CCCN3C[C@H](F)C4)nc3c2C[C@H](C)[C@@H](c2nc(N)cc(C)c2C(F)(F)F)C3)C1 [Example 137, 1-(3-((((6S,7S)-7-(6-amino-4-methyl-3-(trifluoromethyl)pyridin-2-yl)-2-(((2R,7aS)-2-fluorotetrahydro-1H-pyrrolizin-7a(5H)-yl)methoxy)-6-methyl-5,6,7,8-tetrahydroquinazolin-4-yl)(methyl)amino)methyl)azetidin-1-yl)prop-2-en-1-one] | ≥ 500 nM
CN(c1nc(OC[C@@]23CCCN2C[C@H](F)C3)nc2c(F)c(-c3nc(N)cc4cccc(Cl)c34)ncc12)[C@@H]1CCN(C(=O)/C=C/c2nc(C(C)(C)O)no2)C1 [Example 93] | < 10 nM
C=CC(=O)N1CC[C@@H](N(C)c2nc(OC[C@@]34CCCN3C[C@H](F)C4)nc3c(F)c(-c4ncn5ccccc45)ncc23)C1 [Example 246] | ≥ 500 nM
C=CC(=O)N1CC(CN(C)c2nc(OC[C@@]34CCCN3C[C@H](F)C4)nc3c(F)c(-c4nc(N)cc(C)c4C(F)(F)F)ncc23)C1 [Example 64, 1-(3-(((7-(6-amino-4-methyl-3-(trifluoromethyl)pyridin-2-yl)-8-fluoro-2-(((2R,7aS)-2-fluorotetrahydro-1H-pyrrolizin-7a(5H)-yl)methoxy)pyrido[4,3-d]pyrimidin-4-yl)(methyl)amino)methyl)azetidin-1-yl)prop-2-en-1-one] | 10 to 100 nM
C=CC(=O)N1CC[C@@H](N(C)c2nc(OC[C@@]34CCCN3C[C@H](F)C4)nc3c(F)c(-c4nc(N)ccc4C(F)(F)F)ncc23)C1 [Example 46, 1-((R)-3-((7-(6-amino-3-(trifluoromethyl)pyridin-2-yl)-8-fluoro-2-(((2R,7aS)-2-fluorotetrahydro-1H-pyrrolizin-7a(5H)-yl)methoxy)pyrido[4,3-d]pyrimidin-4-yl)(methyl)amino)pyrrolidin-1-yl)prop-2-en-1-one] | 100 to 500 nM
C=CC(=O)N1CC[C@@H](N(C)c2nc(OC[C@@]34CCCN3C[C@H](F)C4)nc3c(F)c(-c4nc(N)ccc4C)ncc23)C1 [Example 125, 1-((R)-3-((7-(6-amino-3-methylpyridin-2-yl)-8-fluoro-2-(((2R,7aS)-2-fluorotetrahydro-1H-pyrrolizin-7a(5H)-yl)methoxy)pyrido[4,3-d]pyrimidin-4-yl)(methyl)amino)pyrrolidin-1-yl)prop-2-en-1-one] | ≥ 500 nM
Cc1cc(N)nc(-c2ncc3c(N4CCN(C#N)CC4)nc(OC[C@@]45CCCN4C[C@H](F)C5)nc3c2F)c1C(F)(F)F [Example 49, 4-(7-(6-amino-4-methyl-3-(trifluoromethyl)pyridin-2-yl)-8-fluoro-2-(((2R,7aS)-2-fluorohexahydro-1H-pyrrolizin-7a-yl)methoxy)pyrido[4,3-d]pyrimidin-4-yl)piperazine-1-carbonitrile] | 100 to 500 nM
C#Cc1cccc2[nH]nc(-c3ncc4c(N(C)[C@@H]5CCN(C(=O)C=C)C5)nc(OC[C@@]56CCCN5C[C@H](F)C6)nc4c3F)c12 [Example 216] | ≥ 500 nM

The next lines start with the values.

IC50 | Structure (SMILES)
≥ 500 nM | C=CC(=O)N1CC[C@@H](N(C)c2nc(OC[C@@]34CCCN3C[C@H](F)C4)nc3c(F)c(-c4cc(OC(F)F)ccc4Cl)ncc23)C1 [Example 186]
< 10 nM | Cc1nccc(/C=C/C(=O)N2CC[C@@H](N(C)c3nc(OC[C@@]45CCCN4C[C@H](F)C5)nc4c(F)c(-c5cc(O)cc(Cl)c5C5CC5)ncc34)C2)n1 [Example 254]
< 10 nM | Cc1cc(/C=C/C(=O)N2CC[C@@H](N(C)c3nc(OC[C@@]45CCCN4C[C@H](F)C5)nc4c(F)c(-c5cc(O)cc(Cl)c5C5CC5)ncc34)C2)nc(C)n1 [Example 201]
< 10 nM | Cc1cc(N)nc(-c2ncc3c(N(C)CC4CN(C(=O)/C=C/c5nc(C(C)C)no5)C4)nc(OC[C@@]45CCCN4C[C@H](F)C5)nc3c2F)c1C(F)(F)F [Example 153]
100 to 500 nM | Cc1cc(N)nc(-c2ncc3c(N(C)CC4CN(C(=O)/C=C/c5nc(C(C)C)no5)C4)nc(OC[C@@]45CCCN4C[C@H](F)C5)nc3c2F)c1C1CC1 [Example 175]
100 to 500 nM | C=CC(=O)N1CC[C@@H](N(C)c2nc(OC[C@@]34CCCN3C[C@H](F)C4)nc3c(F)c(-c4nc(N)cc(C)c4C4CC4)ncc23)C1 [Example 5, 1-((R)-3-((7-(6-amino-3-cyclopropyl-4-methylpyridin-2-yl)-8-fluoro-2-(((2R,7aS)-2-fluorotetrahydro-1H-pyrrolizin-7a(5H)-yl)methoxy)pyrido[4,3-d]pyrimidin-4-yl)(methyl)amino)pyrrolidin-1-yl)prop-2-en-1-one]
10 to 100 nM | Cc1nsc(/C=C/C(=O)N2CC(CN(C)c3nc(OC[C@@]45CCCN4C[C@H](F)C5)nc4c(F)c(-c5nc(N)cc(C)c5C(F)(F)F)ncc34)C2)n1 [Example 4, (E)-1-(3-(((7-(6-amino-4-methyl-3-(trifluoromethyl)pyridin-2-yl)-8-fluoro-2-(((2R,7aS)-2-fluorohexahydro-1H-pyrrolizin-7a-yl)methoxy)pyrido[4,3-d]pyrimidin-4-yl)(methyl)amino)methyl)azetidin-1-yl)-3-(3-methyl-1,2,4-thiadiazol-5-yl)prop-2-en-1-one]
≥ 500 nM | C=CC(=O)N1CC[C@@H](N(C)c2nc(OC[C@@]34CCCN3C[C@H](F)C4)nc3c(F)c(-c4cccn5nccc45)ncc23)C1 [Example 234]
10 to 100 nM | CN(C)CC#CC(=O)N1CC[C@@H](N(C)c2nc(OC[C@@]34CCCN3C[C@H](F)C4)nc3c(F)c(-c4nc(N)cc5cccc(Cl)c45)ncc23)C1 [Example 91]
< 10 nM | Cc1cc(N)nc(-c2ncc3c(N(C)CC4CN(C(=O)/C=C/c5nc(C(C)C)no5)C4)nc(OC[C@@]45CCCN4C[C@H](F)C5)nc3c2F)c1C(F)(F)F [Example 51, (E)-1-(3-(((7-(6-amino-4-methyl-3-(trifluoromethyl)pyridin-2-yl)-8-fluoro-2-(((2R,7aS)-2-fluorohexahydro-1H-pyrrolizin-7a-yl)methoxy)pyrido[4,3-d]pyrimidin-4-yl)(methyl)amino)methyl)azetidin-1-yl)-3-(3-isopropyl-1,2,4-oxadiazol-5-yl)prop-2-en-1-one]
